In brackets after ≈: the same amount, converted by molar mass.
Columns and labels:
Experiment in all cases: minimal inhibitory concentration, two-fold agar dilution
Type in all cases: cell-based
[1] = tested on: Streptococcus faecalis ATCC 29212; conditions: Enterococcus faecalis, ATCC29212; Muller-Hinton agar; 37°C; 20 hours; read-out: MIC values against the standard strains
Summary of the method: (§1)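 Compounds were serially diluted two-fold into Mueller-Hinton agar, and each plate was spot-inoculated with the test strain at 10⁷ CFU per ml. Plates were incubated at 37°C for 20 hours before MIC values were read.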

[2] = tested on: Escherichia coli ATCC 25922; conditions: ATCC25922, Muller-Hinton agar, 37°C, 20 hours, read-out: MIC values against the standard strains
Summary of the method: as §1

[3] = tested on: Staphylococcus epidermidis ATCC 12228; conditions: ATCC12228, Muller-Hinton agar, 37°C, 20 hours, read-out: MIC values against the standard strains
Summary of the method: as §1

[4] = tested on: Bacillus megaterium ATCC 9885; conditions: Priestia megaterium, ATCC9885; Muller-Hinton agar; 37°C; 20 hours; read-out: MIC values against the standard strains
Summary of the method: as §1

[5] = tested on: Shigella flexneri ATCC 11836; conditions: ATCC11836, Muller-Hinton agar, 37°C, 20 hours, read-out: MIC values against the standard strains
Summary of the method: as §1

[6] = tested on: Providencia rettgeri ATCC 9250; conditions: ATCC9250, Muller-Hinton agar, 37°C, 20 hours, read-out: MIC values against the standard strains
Summary of the method: as §1

[7] = tested on: Escherichia coli ATCC 10536; conditions: ATCC10536, Muller-Hinton agar, 37°C, 20 hours, read-out: MIC values against the standard strains
Summary of the method: as §1

[8] = tested on: Shigella sonnei ATCC 11060; conditions: ATCC11060, Muller-Hinton agar, 37°C, 20 hours, read-out: MIC values against the standard strains
Summary of the method: as §1

[9] = tested on: Salmonella typhimurium ATCC 14028; conditions: Salmonella enterica; Muller-Hinton agar; 37°C; 20 hours; read-out: MIC values against the standard strains
Summary of the method: as §1

[10] = tested on: Morganella morganii ATCC 8076h; conditions: ATCC8076H, Muller-Hinton agar, 37°C, 20 hours, read-out: MIC values against the standard strains
Summary of the method: as §1

[11] = tested on: Enterobacter aerogenes ATCC 29751; conditions: Klebsiella aerogenes, ATCC29751; Muller-Hinton agar; 37°C; 20 hours; read-out: MIC values against the standard strains
Summary of the method: as §1

[12] = tested on: Pseudomonas aeruginosa ATCC 25619; conditions: ATCC25619, Muller-Hinton agar, 37°C, 20 hours, read-out: MIC values against the standard strains
Summary of the method: as §1

[13] = tested on: Staphylococcus aureus ATCC 6538p; conditions: ATCC6538P, Muller-Hinton agar, 37°C, 20 hours, read-out: MIC values against the standard strains
Summary of the method: as §1

[14] = tested on: Klebsiella pneumoniae ATCC 10031; conditions: ATCC10031, Muller-Hinton agar, 37°C, 20 hours, read-out: MIC values against the standard strains
Summary of the method: as §1

[15] = tested on: Proteus mirabilis ATCC 25933; conditions: ATCC25933, Muller-Hinton agar, 37°C, 20 hours, read-out: MIC values against the standard strains
Summary of the method: as §1

[16] = tested on: Staphylococcus aureus ATCC 10537; conditions: ATCC10537, Muller-Hinton agar, 37°C, 20 hours, read-out: MIC values against the standard strains
Summary of the method: as §1

[17] = tested on: Citrobacter freundii ATCC 8090; conditions: ATCC8090, Muller-Hinton agar, 37°C, 20 hours, read-out: MIC values against the standard strains
Summary of the method: as §1

[18] = tested on: Bacillus cereus ATCC 11778; conditions: ATCC11778, Muller-Hinton agar, 37°C, 20 hours, read-out: MIC values against the standard strains
Summary of the method: as §1

[19] = tested on: Serratia marcescens ATCC 27117; conditions: ATCC27117, Muller-Hinton agar, 37°C, 20 hours, read-out: MIC values against the standard strains
Summary of the method: as §1

[20] = tested on: Pseudomonas aeruginosa ATCC 10145; conditions: ATCC10145, Muller-Hinton agar, 37°C, 20 hours, read-out: MIC values against the standard strains
Summary of the method: as §1

[21] = tested on: Pseudomonas aeruginosa ATCC 27853; conditions: ATCC27853, Muller-Hinton agar, 37°C, 20 hours, read-out: MIC values against the standard strains
Summary of the method: as §1

[22] = tested on: Acinetobacter calcoaceticus ATCC 15437; conditions: ATCC15437, Muller-Hinton agar, 37°C, 20 hours, read-out: MIC values against the standard strains
Summary of the method: as §1

[23] = tested on: Enterobacter cloacae ATCC 27508; conditions: ATCC27508, Muller-Hinton agar, 37°C, 20 hours, read-out: MIC values against the standard strains
Summary of the method: as §1

[24] = tested on: Micrococcus luteus ATCC 9341; conditions: ATCC9341, Muller-Hinton agar, 37°C, 20 hours, read-out: MIC values against the standard strains
Summary of the method: as §1

[25] = tested on: Proteus vulgaris ATCC 6059; conditions: ATCC6059, Muller-Hinton agar, 37°C, 20 hours, read-out: MIC values against the standard strains
Summary of the method: as §1

[26] = tested on: Acinetobacter calcoaceticus ATCC 15473; conditions: ATCC15473, Muller-Hinton agar, 37°C, 20 hours, read-out: MIC values against the standard strains
Summary of the method: as §1

Structure (SMILES)	MIC [1]	MIC [2]	MIC [3]	MIC [4]	MIC [5]	MIC [6]	MIC [7]	MIC [8]	MIC [9]	MIC [10]	MIC [11]	MIC [12]	MIC [13]	MIC [14]	MIC [15]	MIC [16]	MIC [17]	MIC [18]	MIC [19]	MIC [20]	also measured
CCO/N=C(\C(=O)N[C@@H]1C(=O)N2C(C(=O)[O-])=C(CSc3nc(N)cc[n+]3C)CS[C@H]12)c1csc(N)n1 [Example 4, 7-[(Z)-2-(aminothiazol-4-yl)-2-(ethoxyimino)acetamido]-3-(4-amino-1-methylpyrimidinium-2-yl)thiomethyl-3-cephem-4-carboxylate]	64 µg/mL (≈ 116 µM)	0.063 µg/mL (≈ 0.114 µM)	0.13 µg/mL (≈ 0.236 µM)	0.13 µg/mL (≈ 0.236 µM)	0.031 µg/mL (≈ 0.0563 µM)	≤ 0.008 µg/mL	0.063 µg/mL (≈ 0.114 µM)	0.25 µg/mL (≈ 0.454 µM)	0.25 µg/mL (≈ 0.454 µM)	≤ 0.008 µg/mL	0.25 µg/mL (≈ 0.454 µM)	1 µg/mL (≈ 1.82 µM)	0.5 µg/mL (≈ 0.908 µM)	≤ 0.008 µg/mL	0.5 µg/mL (≈ 0.908 µM)	0.25 µg/mL (≈ 0.454 µM)	0.063 µg/mL (≈ 0.114 µM)	32 µg/mL (≈ 58.1 µM)	0.25 µg/mL (≈ 0.454 µM)	16 µg/mL (≈ 29.1 µM)	MIC [21]: 8 µg/mL (≈ 14.5 µM); MIC [22]: 8 µg/mL (≈ 14.5 µM); MIC [23]: ≤ 0.008 µg/mL; MIC [24]: 0.063 µg/mL (≈ 0.114 µM); MIC [25]: 0.5 µg/mL (≈ 0.908 µM)
CCO/N=C(\C(=O)N[C@@H]1C(=O)N2C(C(=O)[O-])=C(CSc3nc(N)c(N)c(N)[n+]3C)CS[C@H]12)c1nsc(N)n1 [Example 5]	32 µg/mL (≈ 55 µM)	0.063 µg/mL (≈ 0.108 µM)	0.25 µg/mL (≈ 0.43 µM)	0.063 µg/mL (≈ 0.108 µM)	0.031 µg/mL (≈ 0.0533 µM)	≤ 0.008 µg/mL	0.063 µg/mL (≈ 0.108 µM)	0.25 µg/mL (≈ 0.43 µM)	0.25 µg/mL (≈ 0.43 µM)	≤ 0.008 µg/mL	0.016 µg/mL (≈ 0.0275 µM)	0.5 µg/mL (≈ 0.86 µM)	0.5 µg/mL (≈ 0.86 µM)	0.016 µg/mL (≈ 0.0275 µM)	0.5 µg/mL (≈ 0.86 µM)	0.25 µg/mL (≈ 0.43 µM)	0.13 µg/mL (≈ 0.223 µM)	16 µg/mL (≈ 27.5 µM)	0.25 µg/mL (≈ 0.43 µM)	4 µg/mL (≈ 6.88 µM)	MIC [21]: 2 µg/mL (≈ 3.44 µM); MIC [22]: 2 µg/mL (≈ 3.44 µM); MIC [23]: 0.13 µg/mL (≈ 0.223 µM); MIC [24]: 0.031 µg/mL (≈ 0.0533 µM); MIC [25]: 0.5 µg/mL (≈ 0.86 µM)
CCO/N=C(\C(=O)N[C@@H]1C(=O)N2C(C(=O)[O-])=C(CSc3nc(N)cc[n+]3C)CS[C@H]12)c1nsc(N)n1 [Example 6, 7-[(Z)-2-(5-amino-1,2,4-thiadiazol-3-yl)-2-(ethoxyimino)acetamido]-3-(4-amino-1-methylpyrimidinium-2-yl)thiomethyl-3-cephem-4-carboxylate]	32 µg/mL (≈ 58 µM)	0.063 µg/mL (≈ 0.114 µM)	0.13 µg/mL (≈ 0.236 µM)	0.063 µg/mL (≈ 0.114 µM)	0.063 µg/mL (≈ 0.114 µM)	≤ 0.008 µg/mL	0.063 µg/mL (≈ 0.114 µM)	0.25 µg/mL (≈ 0.453 µM)	0.5 µg/mL (≈ 0.906 µM)	≤ 0.008 µg/mL	0.016 µg/mL (≈ 0.029 µM)	0.5 µg/mL (≈ 0.906 µM)	0.13 µg/mL (≈ 0.236 µM)	≤ 0.008 µg/mL	0.5 µg/mL (≈ 0.906 µM)	0.13 µg/mL (≈ 0.236 µM)	0.063 µg/mL (≈ 0.114 µM)	16 µg/mL (≈ 29 µM)	0.5 µg/mL (≈ 0.906 µM)	4 µg/mL (≈ 7.25 µM)	MIC [21]: 2 µg/mL (≈ 3.63 µM); MIC [22]: 1 µg/mL (≈ 1.81 µM); MIC [23]: 0.063 µg/mL (≈ 0.114 µM); MIC [24]: 0.063 µg/mL (≈ 0.114 µM); MIC [25]: 0.5 µg/mL (≈ 0.906 µM)
Nc1cc[n+](N)c(SCC2=C(C(=O)[O-])N3C(=O)[C@@H](NC(=O)/C(=N\OCC(=O)O)c4csc(N)n4)[C@H]3SC2)n1 [Example 75, 7-[(Z)-2-(2-aminothiazol-4-yl)-2-(carboxymethoxyimino)acetamido]-3-(1,4-diaminopyrimidinium-2-yl)thiomethyl-3-cephem-4-carboxylate]	> 128 µg/mL	0.016 µg/mL (≈ 0.0275 µM)	4 µg/mL (≈ 6.88 µM)	0.5 µg/mL (≈ 0.86 µM)	0.016 µg/mL (≈ 0.0275 µM)	≤ 0.008 µg/mL	0.016 µg/mL (≈ 0.0275 µM)	0.016 µg/mL (≈ 0.0275 µM)	0.063 µg/mL (≈ 0.108 µM)	≤ 0.008 µg/mL	0.5 µg/mL (≈ 0.86 µM)	4 µg/mL (≈ 6.88 µM)	8 µg/mL (≈ 13.8 µM)	0.016 µg/mL (≈ 0.0275 µM)	0.063 µg/mL (≈ 0.108 µM)	4 µg/mL (≈ 6.88 µM)	0.031 µg/mL (≈ 0.0533 µM)	128 µg/mL (≈ 220 µM)	0.031 µg/mL (≈ 0.0533 µM)	8 µg/mL (≈ 13.8 µM)	MIC [21]: 4 µg/mL (≈ 6.88 µM); MIC [23]: ≤ 0.008 µg/mL; MIC [24]: 2 µg/mL (≈ 3.44 µM); MIC [26]: 4 µg/mL (≈ 6.88 µM); MIC [25]: 0.031 µg/mL (≈ 0.0533 µM)

Reference: EP0584797A2, “Novel cephalosporin compounds and processes for the preparation thereof” (LUCKY LTD., priority 1992, dated 1994)
